Laboratory results published in patent EP0249194A2, “Topical prostaglandin formulations” (AMERICAN CYANAMID COMPANY, priority 1986, dated 1987).
Like-named read-outs stand apart in the source and are kept apart here.

What was measured:
[1] = Stability of viprostol compositions on storage in glass (ampules); type: physicochemical
male pattern baldness = test: Clinical study of hair growth after once-daily topical application to the scalp, hair counts; type: in vivo, healthy, male volunteers; conditions: topical application of small amounts; mean hair counts over a six-month period (Figs. 1-5) and three-month chart
Description: Clinical studies using healthy, male volunteers (age 18-65) with vertex baldness and some recession of front hairline were performed using viprostol in Formulation A, above-described. The volunteers were not hypertensive. […] The hairs on such location were counted at the beginning of the study, and recounts were done periodically during the course of the study. All hair, including unpigmented vellus and pigmented intermediate and terminal hair was, counted, except as indicated hereinbelow. The amount of viprostol applied was approximately 120 mcg, which amount was applied once daily to the bald and balding areas of the scalp. The viprostol was contained in the above-described Formulation A. Approximately 0.3 ml of such formulation was topically to the scalp with an index finger and rubbing action. The scalp was clean (recently shampooed) and dry at application. The chart below summarizes the results after three months of study.
Additionally, as the study proceeded beyond three months, the results wre charted as mean hair counts over time.

Stability of Viprostol Compositions (% of Initial Potency) ([1]; Initial): 100%
remaining at 1440 h ([1]; neat bulk liquid, 23°C 2 months, read-out: Stability of Viprostol Compositions (% of Initial Potency)): 99%
remaining at 4320 h ([1]; neat bulk liquid, 23°C 6 months, read-out: Stability of Viprostol Compositions (% of Initial Potency)): 87%
remaining at 8760 h ([1]; neat bulk liquid, 23°C 12 months, read-out: Stability of Viprostol Compositions (% of Initial Potency)): 20%
remaining at 13152 h ([1]; neat bulk liquid, 23°C 18 months, read-out: Stability of Viprostol Compositions (% of Initial Potency)): 12%
remaining at 1440 h ([1]; neat bulk liquid, 42°C 2 months, read-out: Stability of Viprostol Compositions (% of Initial Potency)): 83%
remaining at 720 h ([1]; neat bulk liquid, 56°C 1 month, read-out: Stability of Viprostol Compositions (% of Initial Potency)): 32%
remaining at 1440 h ([1]; neat bulk liquid, 56°C 2 months, read-out: Stability of Viprostol Compositions (% of Initial Potency)): 0%
SMILES: C=CC(O)(CC=CC1C(O)CC(=O)C1CC=CCCCC(=O)OC)CCCC (racemic) [viprostol, Methyl (±)-[11α,5Z(5E), 13E, 16R and 16S]-16 ethenyl-11,16-dihydroxy-9-oxoprosta-5,13-dien-1-oate]
hair growth (male pattern baldness): caused hair growth
